In ChEMBL document CHEMBL1201862, “PubChem BioAssay data set” (2004):
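Interpolation was linear, between the two tested concentrations surrounding the appropriate level; five concentrations were tested over 48 hours in 96-well plates. GI50 is the concentration that inhibits growth by half.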 Activity calls are given as the source filed them. Rule as the data show it: active = GI50 up to about 1.1 µM and inactive = higher.

How the values were obtained:
Assay in all cases: NCI-60 cell line screen, 48 h
SNB-19 = system: SNB-19
Hs-578T = system: Hs-578T
NCI/ADR-RES = system: NCI/ADR-RES
NCI-H226 = system: NCI-H226
SN12C = system: SN12C
U-251 = system: U-251
UO-31 = system: UO-31
786-0 = system: 786-0
NCI-H460 = system: NCI-H460
SR = system: SR
A498 = system: A498
HOP-62 = system: HOP-62
UACC-257 = system: UACC-257
LOX IMVI = system: LOX IMVI
HCC 2998 = system: HCC 2998
RXF 393 = system: RXF 393
COLO 205 = system: COLO 205
SF-539 = system: SF-539
CCRF-CEM = system: CCRF-CEM
MCF7 = system: MCF7

| Structure (SMILES) | GI50 (SNB-19) | GI50 (Hs-578T) | GI50 (NCI/ADR-RES) | GI50 (NCI-H226) | GI50 (SN12C) | GI50 (U-251) | GI50 (UO-31) | GI50 (786-0) | GI50 (NCI-H460) | GI50 (SR) | GI50 (A498) | GI50 (HOP-62) | GI50 (UACC-257) | GI50 (LOX IMVI) | GI50 (HCC 2998) | GI50 (RXF 393) | GI50 (COLO 205) | GI50 (SF-539) | GI50 (CCRF-CEM) | GI50 (MCF7) |
| --- | --- | --- | --- | --- | --- | --- | --- | --- | --- | --- | --- | --- | --- | --- | --- | --- | --- | --- | --- | --- |
| O=c1[nH]c2c(S)nc(O)nc2n1-c1ccccc1 | > 100 µM (inactive) | > 100 µM (inactive) | > 100 µM (inactive) | > 100 µM (inactive) | > 100 µM (inactive) | > 100 µM (inactive) | > 100 µM (inactive) | > 100 µM (inactive) | > 100 µM (inactive) | > 100 µM (inactive) | > 100 µM (inactive) | > 100 µM (inactive) | > 100 µM (inactive) | > 100 µM (inactive) | > 100 µM (inactive) | > 100 µM (inactive) |  |  |  |  |
| O=C(O)CCSCc1ccccc1 | > 100 µM (inactive) | > 100 µM (inactive) | > 100 µM (inactive) | > 100 µM (inactive) | > 100 µM (inactive) | > 100 µM (inactive) | > 100 µM (inactive) | > 100 µM (inactive) | > 100 µM (inactive) |  | > 100 µM (inactive) | > 100 µM (inactive) | > 100 µM (inactive) | > 100 µM (inactive) | > 100 µM (inactive) | > 100 µM (inactive) | > 100 µM (inactive) | > 100 µM (inactive) | > 100 µM (inactive) | > 100 µM (inactive) |
| CCNC(=S)NNC(=O)C12CC3CC(CC(C3)C1)C2 | > 100 µM (inactive) | > 100 µM (inactive) | > 100 µM (inactive) | > 100 µM (inactive) | > 100 µM (inactive) | > 100 µM (inactive) | > 100 µM (inactive) | > 100 µM (inactive) | > 100 µM (inactive) |  | > 100 µM (inactive) | > 100 µM (inactive) | > 100 µM (inactive) | > 100 µM (inactive) | > 100 µM (inactive) | > 100 µM (inactive) | > 100 µM (inactive) | > 100 µM (inactive) | > 100 µM (inactive) | > 100 µM (inactive) |
| C=CCNC(=O)NC1=CSC2=NC(=O)C3(NN12)c1ccccc1-c1ccccc13 | > 10 µM (inactive) | 4.16 µM (inactive) | > 10 µM (inactive) | > 10 µM (inactive) | > 10 µM (inactive) |  | 8.24 µM (inactive) | > 10 µM (inactive) | > 10 µM (inactive) | > 10 µM (inactive) |  | > 10 µM (inactive) | > 10 µM (inactive) | > 10 µM (inactive) | > 10 µM (inactive) | > 10 µM (inactive) | > 10 µM (inactive) | > 10 µM (inactive) | > 10 µM (inactive) | > 10 µM (inactive) |
| COC(C/C(=C/CO[Si](C(C)C)(C(C)C)C(C)C)C(=O)N(COCC[Si](C)(C)C)c1ccccc1I)OC | 26.1 µM (inactive) | 48.2 µM (inactive) | > 100 µM (inactive) | 36 µM (inactive) | 71 µM (inactive) | 22.8 µM (inactive) | 55.3 µM (inactive) | 31.4 µM (inactive) | 33.4 µM (inactive) | > 100 µM (inactive) | > 100 µM (inactive) | 50.9 µM (inactive) | 20 µM (inactive) | 14.7 µM (inactive) | 43.9 µM (inactive) |  | 57.7 µM (inactive) |  | 22.7 µM (inactive) |  |
| Cc1ccc(S(=O)(=O)NCCCCC(N)C(=O)O)cc1 (stereo unspecified) | > 100 µM (inactive) | > 100 µM (inactive) | > 100 µM (inactive) | > 100 µM (inactive) | > 100 µM (inactive) | > 100 µM (inactive) | > 100 µM (inactive) | > 100 µM (inactive) | > 100 µM (inactive) |  | > 100 µM (inactive) | > 100 µM (inactive) | > 100 µM (inactive) |  |  | > 100 µM (inactive) | > 100 µM (inactive) | > 100 µM (inactive) | > 100 µM (inactive) | > 100 µM (inactive) |
| N#CCCC1(CCC#N)CCCCCCCCC(CCC#N)(CCC#N)C(=O)C1=O | > 100 µM (inactive) | 91 µM (inactive) | > 100 µM (inactive) | > 100 µM (inactive) | > 100 µM (inactive) | > 100 µM (inactive) |  | > 100 µM (inactive) | > 100 µM (inactive) | > 100 µM (inactive) |  | > 100 µM (inactive) | 55.6 µM (inactive) | > 100 µM (inactive) | > 100 µM (inactive) |  | > 100 µM (inactive) | 44.6 µM (inactive) |  | > 100 µM (inactive) |
| Cc1ccc(C)n2c1nc1cc3ccccc3cc12 | 24.4 µM (inactive) | 60.3 µM (inactive) | 49.4 µM (inactive) | 36 µM (inactive) | 43 µM (inactive) | 30.4 µM (inactive) | 14.9 µM (inactive) | 36.2 µM (inactive) |  | 43.4 µM (inactive) |  | 21 µM (inactive) | 49.2 µM (inactive) |  |  | 12.3 µM (inactive) | 3.52 µM (inactive) | 30.7 µM (inactive) | 33.4 µM (inactive) | 1.14 µM (inactive) |
| Cn1c(=O)n2n(c1=O)C(S(=O)(=O)c1ccccc1)C2 (stereo unspecified) | > 100 µM (inactive) | > 100 µM (inactive) | > 100 µM (inactive) |  | > 100 µM (inactive) | > 100 µM (inactive) | > 100 µM (inactive) | > 100 µM (inactive) | > 100 µM (inactive) |  |  | > 100 µM (inactive) | > 100 µM (inactive) | > 100 µM (inactive) | > 100 µM (inactive) | > 100 µM (inactive) | > 100 µM (inactive) | > 100 µM (inactive) | > 100 µM (inactive) | > 100 µM (inactive) |
| CC(=O)Oc1ccc2c(c1)O/C(=C\c1ccc(O)cc1)C2=O | > 100 µM (inactive) | 27.5 µM (inactive) | > 100 µM (inactive) | > 100 µM (inactive) | > 100 µM (inactive) | > 100 µM (inactive) | > 100 µM (inactive) | > 100 µM (inactive) | > 100 µM (inactive) | > 100 µM (inactive) |  | > 100 µM (inactive) | > 100 µM (inactive) |  | > 100 µM (inactive) | > 100 µM (inactive) | > 100 µM (inactive) | > 100 µM (inactive) | > 100 µM (inactive) | > 100 µM (inactive) |
| O=C(O)C1C(C(=O)O)C2C(=O)C=CC1N2Cc1ccccc1 (stereo unspecified) | 5.55 µM (inactive) | 2.82 µM (inactive) | 2.3 µM (inactive) | 16 µM (inactive) | 1.84 µM (inactive) | 3.52 µM (inactive) | 1.71 µM (inactive) | 2.49 µM (inactive) | 1.98 µM (inactive) |  | 20.3 µM (inactive) | 2.59 µM (inactive) | 2.62 µM (inactive) | 3.4 µM (inactive) | 2.8 µM (inactive) | 2.72 µM (inactive) | 6.98 µM (inactive) | 2.8 µM (inactive) | 0.383 µM (active) | 4.63 µM (inactive) |
| N#CC(c1cc2c(cc1Br)OCO2)N1CCOCC1 (stereo unspecified) | 61.9 µM (inactive) | 25.6 µM (inactive) | 27.1 µM (inactive) | 61.5 µM (inactive) | 56.2 µM (inactive) |  | 71.4 µM (inactive) | 36.4 µM (inactive) | > 100 µM (inactive) | 4.82 µM (inactive) |  | 44 µM (inactive) | > 100 µM (inactive) | 24.5 µM (inactive) | > 100 µM (inactive) | 19.9 µM (inactive) | 64.9 µM (inactive) | 29.7 µM (inactive) | 7.26 µM (inactive) | 42.3 µM (inactive) |
| COC(=O)C1CC2(CCC1=O)Cc1ccccc1C2=O (stereo unspecified) | > 100 µM (inactive) | > 100 µM (inactive) | 99.5 µM (inactive) | 47.4 µM (inactive) | > 100 µM (inactive) | > 100 µM (inactive) | > 100 µM (inactive) | > 100 µM (inactive) | > 100 µM (inactive) | 37.8 µM (inactive) |  | > 100 µM (inactive) | > 100 µM (inactive) | > 100 µM (inactive) | > 100 µM (inactive) | 14.5 µM (inactive) | > 100 µM (inactive) | > 100 µM (inactive) | 50.4 µM (inactive) | > 100 µM (inactive) |
| C#CCNC(Cc1ccccc1)C(=O)O (stereo unspecified) | > 100 µM (inactive) | > 100 µM (inactive) | > 100 µM (inactive) | > 100 µM (inactive) |  | > 100 µM (inactive) | > 100 µM (inactive) | > 100 µM (inactive) | > 100 µM (inactive) | > 100 µM (inactive) | > 100 µM (inactive) | > 100 µM (inactive) | > 100 µM (inactive) | > 100 µM (inactive) | > 100 µM (inactive) | > 100 µM (inactive) | > 100 µM (inactive) |  | > 100 µM (inactive) |  |
| COC1C=COC2(C)Oc3c(C)c(O)c4c(O)c(c(C5SCCS5)c(O)c4c3C2=O)NC(=O)C(C)=C/C=C\C(C)C2OC(C)(C)OC(C2C)C(C)C(OC(C)=O)C1C (stereo unspecified) | 16.4 µM (inactive) | 15.8 µM (inactive) | 11.6 µM (inactive) | 6.71 µM (inactive) | 4.3 µM (inactive) | 4.78 µM (inactive) | 7.41 µM (inactive) | 10.1 µM (inactive) | 4.21 µM (inactive) |  | 12.3 µM (inactive) | 12.2 µM (inactive) | 2.74 µM (inactive) | 5.31 µM (inactive) | 5.15 µM (inactive) | 7.21 µM (inactive) | 3.38 µM (inactive) | 12.9 µM (inactive) | 5.86 µM (inactive) | 2.92 µM (inactive) |
| COC(=O)C1(C)C=CC(=O)C2(C)C1C(O)C1OC3CC(c4ccoc4)C(C)=C3C1(C)C2CC(=O)O (stereo unspecified) | > 100 µM (inactive) | > 100 µM (inactive) | > 100 µM (inactive) |  | > 100 µM (inactive) | > 100 µM (inactive) | > 100 µM (inactive) | > 100 µM (inactive) | > 100 µM (inactive) |  | > 100 µM (inactive) |  | > 100 µM (inactive) | > 100 µM (inactive) | > 100 µM (inactive) |  | > 100 µM (inactive) | > 100 µM (inactive) | > 100 µM (inactive) | > 100 µM (inactive) |
